# Assay results published in patent US20180021450A1, “ANTI-STAPHYLOCOCCUS AUREUS ANTIBODY RIFAMYCIN CONJUGATES AND USES THEREOF” (Genentech, Inc., priority 2014, published 2018).
# What was measured:
# [1] = system: S. aureus (USA300), stationary phase; test: Time of kill for free antibiotics on non-replicating bacteria; type: cell-based, Staphylococcus aureus; details: 1×10^-6M antibiotic, overnight incubation in PBS at 37° C.
# Experimental: Time of kill for free antibiotics on non-replicating bacteria: S. aureus (USA300) was taken from an overnight stationary phase culture, washed once in Phosphate Buffered Saline (PBS) and suspended at 1×10^7 CFU/mL in PBS with no antibiotic or with 1×10^-6M antibiotic in a 10 mL volume in 50 mL polypropylene centrifuge tubes. The bacteria were incubated at 37° C. overnight with shaking. At each time point, three 1 mL samples were removed from each culture and centrifuged to collect the bacteria. Bacteria were washed once with PBS to remove the antibiotic and the total number of surviving bacteria was determined by plating serial dilutions of the bacteria on agar plates.
# MRSA was collected from a stationary phase culture and suspended in phosphate buffered saline containing no antibiotic or 1×10^-6M of rifampin or the rifamycin-derivative (Rifalog) and incubated at 37° C. At the indicated times, a sample of the culture was collected and centrifuged to remove the antibiotic and the total number of surviving bacteria was determined by plating.
# [2] = system: MRSA (USA300 NRS384 strain); test: Murine intravenous infection model (CB17.SCID mice reconstituted with IGIV); type: in vivo, Staphylococcus aureus; details: single dose 24h post infection; free antibiotic at equal molar concentration
# Experimental: S. aureus is a common colonizer of human skin and mucosal surfaces. […] Mouse serum has no appreciable levels of anti-S aureus antibody. To determine whether endogenous anti-WTA antibodies found in normal human serum might compete for binding with the AAC, CB17.SCID mice (Charles River Laboratories, Hollister, Calif.) were reconstituted with GammaGard S/D IGIV Immune Globulin (ASD Healthcare, Brooks Ky.) using a dosing regimen optimized to achieve constant serum levels of at least 10 mg/mL of human IgG in serum. IGIV was administered with an initial intravenous dose of 30 mg per mouse followed by a second dose of 15 mg/mouse by intraperitoneal (i.p.) injection after 6 hours, and subsequent daily dosings of 15 mg per mouse by intraperitoneal injection for 3 consecutive days. These mice were equally susceptible to infection with MRSA compared to untreated controls.
# Mice (n=8 for each of antibody or AAC) were infected 4 hours after the first dose of IGIV with 1×10^7 CFU of MRSA (USA300 NRS384 strain) diluted in phosphate buffered saline by intravenous injection. Infected mice were treated with 50 mg/kg of S4497 naked antibody or S4497 AAC from Table 3. […] The total number of bacteria recovered per organ was determined by plating serial dilutions of the tissue homogenate in PBS 0.05% Tween on Tryptic Soy Agar with 5% defibrinated sheep blood.
# [3] = system: S. aureus (USA300) persister cells; test: Killing of persister cells by free antibiotics; type: cell-based, Staphylococcus aureus; details: ciprofloxacin-treated cultures, second antibiotic 1 ug/ml
# Experimental: Killing of persisters cells by free antibiotics: S. aureus (USA300) was taken from an overnight stationary phase culture, washed once in Tryptic Soy Broth (TSB) and then adjusted to a final concentration of 1×10^7 CFU/ml in a total volume of 10 mL of either TSB or TSB with ciprofloxicin (0.05 mM). Cultures were incubated with shaking at 37° C. for 6 hours and then the second antibiotic, either rifampicin (1 ug/ml) or another rifamycin-type antibiotic (1 ug/ml) was added. At the indicated times, samples were removed from each culture, washed once with PBS to remove the antibiotic and re-suspended in PBS. The total number of surviving bacteria was determined by plating serial dilutions of the bacteria on agar plates. At the final time point the remainder of each culture was collected and plated.
smiles,measurement,setting,value
"CO[C@H]1/C=C/O[C@@]2(C)Oc3c(C)c(O)c4c(=O)c(c5oc6cc(N7CCC(N(C)C)CC7)cc(O)c6nc-5c4c3C2=O)NC(=O)/C(C)=C\C=C\[C@H](C)[C@H](O)[C@@H](C)[C@@H](O)[C@@H](C)[C@H](OC(C)=O)[C@@H]1C [dimethylpipBOR, dimethylpiperidyl benzoxazino rifamycin]","decrease in the number of viable, but non-replicating, bacteria",[1],"more than 1,000 fold"
same,efficacy on bacterial counts in infected organs,[2],not efficacicou
same,effect on viability of persister cells,[3],eradication of persister cells below the limit of detection
